Biological target: 5-hydroxytryptamine receptor 1A (Bos taurus)
Experiment: Binding affinity at 5-hydroxytryptamine 1A receptor in bovine hippocampal preparation using [3H]8-OH-DPAT

- Ki: 5.3 nM
SMILES: CCCN(CC1CC1)[C@H]1CCc2ccc3[nH]c(C(N)=O)cc3c2C1

Reference: BindingDB's records for doi:10.1021/jm00067a003 (Upjohn Laboratories, 1993)
